Laboratory results published in the NIST ThermoML archive (doi:10.1016/j.jct.2012.06.031).
± gives the expanded uncertainty stated by the source.

Test: xn = mol fraction of the nth substance listed
Conditions: 101 kPa, Liquid; for viscosity: Concentric cylinders viscometry; for mass density: Vibrating tube method

c1ccncc1 [pyridine] + CCCO
Conditions | mass density [kg/m3] | viscosity [mPa·s]
288.15 K, x1 = 0.1001 | 829.179 ± 0.15 | 2.059 ± 0.011
288.15 K, x1 = 0.1998 | 849.304 ± 0.14 | 1.752 ± 0.011
288.15 K, x1 = 0.2999 | 868.538 ± 0.14 | 1.533 ± 0.01
288.15 K, x1 = 0.3998 | 887.029 ± 0.13 | 1.38 ± 0.0097
288.15 K, x1 = 0.5 | 904.882 ± 0.13 | 1.258 ± 0.0094
288.15 K, x1 = 0.5999 | 922.323 ± 0.13 | 1.189 ± 0.0093
288.15 K, x1 = 0.7 | 939.461 ± 0.12 | 1.127 ± 0.0091
288.15 K, x1 = 0.8 | 956.178 ± 0.12 | 1.091 ± 0.009
288.15 K, x1 = 0.8998 | 972.394 ± 0.12 | 1.065 ± 0.009
288.15 K, x1 = 1 | 988.061 ± 0.12 | 1.03 ± 0.0089
293.15 K, x1 = 0.1001 | 825.041 ± 0.15 | 1.839 ± 0.011
293.15 K, x1 = 0.1998 | 845.036 ± 0.14 | 1.577 ± 0.01
293.15 K, x1 = 0.2999 | 864.154 ± 0.14 | 1.392 ± 0.0097
293.15 K, x1 = 0.3998 | 882.542 ± 0.14 | 1.261 ± 0.0094
293.15 K, x1 = 0.5 | 900.296 ± 0.13 | 1.156 ± 0.0092
293.15 K, x1 = 0.5999 | 917.643 ± 0.13 | 1.096 ± 0.009
293.15 K, x1 = 0.7 | 934.697 ± 0.13 | 1.043 ± 0.0089
293.15 K, x1 = 0.8 | 951.331 ± 0.12 | 1.012 ± 0.0089
293.15 K, x1 = 0.8998 | 967.464 ± 0.12 | 0.9891 ± 0.0088
293.15 K, x1 = 1 | 983.038 ± 0.12 | 0.9588 ± 0.0087
298.15 K, x1 = 0.1001 | 820.881 ± 0.15 | 1.651 ± 0.01
298.15 K, x1 = 0.1998 | 840.744 ± 0.14 | 1.426 ± 0.0098
298.15 K, x1 = 0.2999 | 859.747 ± 0.14 | 1.269 ± 0.0094
298.15 K, x1 = 0.3998 | 878.034 ± 0.14 | 1.157 ± 0.0092
298.15 K, x1 = 0.5 | 895.691 ± 0.13 | 1.066 ± 0.009
298.15 K, x1 = 0.5999 | 912.947 ± 0.13 | 1.014 ± 0.0089
298.15 K, x1 = 0.7 | 929.913 ± 0.13 | 0.9678 ± 0.0087
298.15 K, x1 = 0.8 | 946.465 ± 0.12 | 0.942 ± 0.0087
298.15 K, x1 = 0.8998 | 962.52 ± 0.12 | 0.9212 ± 0.0086
298.15 K, x1 = 1 | 978.006 ± 0.12 | 0.8943 ± 0.0086
303.15 K, x1 = 0.1001 | 816.69 ± 0.15 | 1.488 ± 0.01
303.15 K, x1 = 0.1998 | 836.425 ± 0.14 | 1.291 ± 0.0095
303.15 K, x1 = 0.2999 | 855.316 ± 0.14 | 1.165 ± 0.0092
303.15 K, x1 = 0.3998 | 873.5 ± 0.14 | 1.064 ± 0.009
303.15 K, x1 = 0.5 | 891.065 ± 0.13 | 0.9865 ± 0.0088
303.15 K, x1 = 0.5999 | 908.231 ± 0.13 | 0.9414 ± 0.0087
303.15 K, x1 = 0.7 | 925.114 ± 0.13 | 0.9013 ± 0.0086
303.15 K, x1 = 0.8 | 941.586 ± 0.12 | 0.879 ± 0.0086
303.15 K, x1 = 0.8998 | 957.564 ± 0.12 | 0.8608 ± 0.0085
303.15 K, x1 = 1 | 972.967 ± 0.12 | 0.8355 ± 0.0085
308.15 K, x1 = 0.1001 | 812.466 ± 0.15 | 1.355 ± 0.0097
308.15 K, x1 = 0.1998 | 832.074 ± 0.15 | 1.179 ± 0.0092
308.15 K, x1 = 0.2999 | 850.857 ± 0.14 | 1.065 ± 0.009
308.15 K, x1 = 0.3998 | 868.942 ± 0.14 | 0.9819 ± 0.0088
308.15 K, x1 = 0.5 | 886.415 ± 0.14 | 0.9149 ± 0.0086
308.15 K, x1 = 0.5999 | 903.494 ± 0.13 | 0.8753 ± 0.0086
308.15 K, x1 = 0.7 | 920.29 ± 0.13 | 0.8408 ± 0.0085
308.15 K, x1 = 0.8 | 936.687 ± 0.13 | 0.8222 ± 0.0084
308.15 K, x1 = 0.8998 | 952.593 ± 0.12 | 0.8059 ± 0.0084
308.15 K, x1 = 1 | 967.913 ± 0.12 | 0.7837 ± 0.0084
313.15 K, x1 = 0.1001 | 808.203 ± 0.15 | 1.205 ± 0.0093
313.15 K, x1 = 0.1998 | 827.676 ± 0.15 | 1.076 ± 0.009
313.15 K, x1 = 0.2999 | 846.364 ± 0.14 | 0.9804 ± 0.0088
313.15 K, x1 = 0.3998 | 864.355 ± 0.14 | 0.9082 ± 0.0086
313.15 K, x1 = 0.5 | 881.735 ± 0.14 | 0.8506 ± 0.0085
313.15 K, x1 = 0.5999 | 898.73 ± 0.13 | 0.8167 ± 0.0084
313.15 K, x1 = 0.7 | 915.449 ± 0.13 | 0.786 ± 0.0084
313.15 K, x1 = 0.8 | 931.765 ± 0.13 | 0.7718 ± 0.0083
313.15 K, x1 = 0.8998 | 947.604 ± 0.12 | 0.7566 ± 0.0083
313.15 K, x1 = 1 | 962.849 ± 0.12 | 0.7354 ± 0.0083
318.15 K, x1 = 0.1001 | 803.899 ± 0.15 | 1.103 ± 0.0091
318.15 K, x1 = 0.1998 | 823.264 ± 0.15 | 0.9855 ± 0.0088
318.15 K, x1 = 0.2999 | 841.834 ± 0.14 | 0.9038 ± 0.0086
318.15 K, x1 = 0.3998 | 859.731 ± 0.14 | 0.8426 ± 0.0085
318.15 K, x1 = 0.5 | 877.027 ± 0.14 | 0.7926 ± 0.0084
318.15 K, x1 = 0.5999 | 893.938 ± 0.13 | 0.7629 ± 0.0083
318.15 K, x1 = 0.7 | 910.581 ± 0.13 | 0.7363 ± 0.0083
318.15 K, x1 = 0.8 | 926.83 ± 0.13 | 0.7244 ± 0.0082
318.15 K, x1 = 0.8998 | 942.596 ± 0.12 | 0.711 ± 0.0082
318.15 K, x1 = 1 | 957.769 ± 0.12 | 0.6912 ± 0.0082
323.15 K, x1 = 0.1001 | 799.541 ± 0.15 | 1.009 ± 0.0089
323.15 K, x1 = 0.1998 | 818.793 ± 0.15 | 0.9116 ± 0.0086
323.15 K, x1 = 0.2999 | 837.265 ± 0.14 | 0.844 ± 0.0085
323.15 K, x1 = 0.3998 | 855.071 ± 0.14 | 0.7875 ± 0.0084
323.15 K, x1 = 0.5 | 872.286 ± 0.14 | 0.7452 ± 0.0083
323.15 K, x1 = 0.5999 | 889.121 ± 0.13 | 0.719 ± 0.0082
323.15 K, x1 = 0.7 | 905.688 ± 0.13 | 0.6954 ± 0.0082
323.15 K, x1 = 0.8 | 921.867 ± 0.13 | 0.6813 ± 0.0081
323.15 K, x1 = 0.8998 | 937.566 ± 0.13 | 0.6741 ± 0.0081
323.15 K, x1 = 1 | 952.673 ± 0.12 | 0.6507 ± 0.0081
